Results on one substance are retold here after patent publication EP3228630A1, “COMBINATION OF AN APELIN ANTAGONIST AND AN ANGIOGENESIS INHIBITOR FOR THE TREATMENT OF CANCER” (IMBA-Institut für Molekulare Biotechnologie GmbH, priority 2016, dated 2017).

The test system of the assay is primary human endothelial cells (HUVECs). The note with it: Apelin Pyr13 500nM, human VEGF 25ng/mL, 5 minutes, serum-free media.

Method: Antibody array pathway analysis: For the human phospho-kinase antibody array (R&D Systems), primary HUVEC (human umbilical vein endothelial cells) were cultured overnight with media supplemented with 0.75% of fetal bovine serum (FBS) followed by 15 minutes of media with 0.5%. The cells were then stimulated in serum-free media with either Apelin Pyr13 (BACHEM H-4568, 500nM), human VEGF (Peprotech, 25ng/mL), both of them or either for 5 minutes. 100 µg of cell lysate were added to the membrane and incubated overnight at 4°C with gentle agitation, following the manufacturer instructions. Films were scanned and the intensity of the bands quantified using ImageJ.

With apelin-13, the “pathways regulated (phospho-antibody array)” value is on record as “regulate similar pathways in endothelial cells”.
